Reference: patent US6903238B2, “Substituted indenones as estrogenic agents” (Wyeth, priority 2001, dated 2005)
Like-named read-outs stand apart in the source and are kept apart here.

How the values were obtained:
human ERα = biological target: T1, human ERα (Homo sapiens, UniProt P03372); test: Radioligand binding competition with [3H]-17β-estradiol, ERα; conditions: read-out: ER-α IC50
T1 sequence (P03372 250-595): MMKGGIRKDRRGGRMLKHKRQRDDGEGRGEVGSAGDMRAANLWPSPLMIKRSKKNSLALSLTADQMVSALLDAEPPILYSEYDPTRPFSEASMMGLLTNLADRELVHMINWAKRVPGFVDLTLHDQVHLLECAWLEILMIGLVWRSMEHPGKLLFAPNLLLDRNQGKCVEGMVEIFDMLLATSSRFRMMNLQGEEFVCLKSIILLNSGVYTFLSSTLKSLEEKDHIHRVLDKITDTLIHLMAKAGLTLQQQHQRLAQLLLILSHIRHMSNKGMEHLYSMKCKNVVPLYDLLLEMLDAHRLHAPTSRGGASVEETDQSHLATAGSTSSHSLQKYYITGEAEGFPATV

human ERβ = biological target: T2, human ERβ (Homo sapiens, UniProt Q92731); test: Radioligand binding competition with [3H]-17β-estradiol, ERβ
T2 construct: M250-V595 of human ERα [Green, et al., Nature 320: 134-9 (1986)] and M214-Q530 of human ERβ; Flag (C); made in house; host or cells: E. coli BL21(DE3)

[1] = tested on: metallothionein-II mRNA in Saos-2 cells; test: Regulation of metallothionein II mRNA in Saos-2 cells; type: cell-based
[2] = competition with [3H]-17β-estradiol, human ERα ligand binding domain
[3] = competition with [3H]-17β-estradiol, human ERβ ligand binding domain, read-out: ER-β IC50

T2 sequence (Q92731 214-530): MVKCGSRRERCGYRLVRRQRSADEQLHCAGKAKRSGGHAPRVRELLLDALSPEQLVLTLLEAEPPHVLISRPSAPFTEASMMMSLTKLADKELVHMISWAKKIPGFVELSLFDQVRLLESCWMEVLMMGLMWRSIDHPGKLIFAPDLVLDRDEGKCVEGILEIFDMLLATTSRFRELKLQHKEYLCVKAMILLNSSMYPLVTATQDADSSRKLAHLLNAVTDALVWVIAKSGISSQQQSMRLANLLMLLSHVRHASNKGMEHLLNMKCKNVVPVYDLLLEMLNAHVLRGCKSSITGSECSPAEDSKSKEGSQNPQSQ

| SMILES | IC50 (human ERα; [2]) [nM] | IC50 (human ERβ) [nM] | melting point | IC50 (human ERα) [nM] | IC50 (human ERβ; [3]) [nM] | Fold upregulation of metallothionein-II mRNA [1] |
| --- | --- | --- | --- | --- | --- | --- |
| NC1=C(c2ccc(O)cc2)C(=O)c2ccc(O)cc21 [Example 1, 3-Amino-5-hydroxy-2-(4-hydroxyphenyl)-1H-inden-1-one] | > 5000 | 1150 | 260 to 265 °C |  |  |  |
| O=C1c2ccc(O)cc2C(=O)C1c1ccc(O)cc1 (stereo not drawn) [Example 2, 5-Hydroxy-2-(4-hydroxyphenyl)-1H-indene-1,3(2H)-dione] |  |  | 227 to 228 °C |  | 2630 |  |
| O=C1C(c2ccc(O)cc2)=C(Br)c2ccc(O)cc21 [Example 3, 3-Bromo-6-hydroxy-2-(4-hydroxyphenyl)-1H-inden-1-one] | 290 |  | 240 °C (dec.) |  |  | 10.8 |
| CCSC1=C(c2ccc(O)cc2)C(=O)c2cc(O)ccc21 [Example 6, 3-(Ethylthio)-6-hydroxy-2-(4-hydroxyphenyl)-1H-inden-1-one] | 10 |  | 78 to 81 °C |  | 8 |  |
| O=C1C(c2ccc(O)cc2)=C(c2ccccc2)c2ccc(O)cc21 [Example 10, 6-hydroxy-2-(4-hydroxyphenyl)-3-phenyl-1H-inden-1-one] | 10 | 8 | 100 to 110 °C |  |  |  |
| O=C1C(c2ccc(O)cc2)=C(c2ccccc2)c2cc(O)ccc21 [Example 11, 5-hydroxy-2-(4-hydroxyphenyl)-3-phenyl-1H-inden-1-one] | 15 | 5 | 222 to 225 °C |  |  |  |
| CC1=C(c2ccc(O)cc2)C(=O)c2cc(O)ccc21 [Example 12, 6-hydroxy-2-(4-hydroxyphenyl)-3-methyl-1H-inden-1-one] | 55 |  | 240 to 245 °C |  | 11 |  |
| CC1=C(c2ccc(O)cc2)C(=O)c2ccc(O)cc21 [Example 13, 5-hydroxy-2-(4-hydroxyphenyl)-3-methyl-1H-inden-1-one] | 6 |  | 251 °C |  | 2 |  |
| O=C1c2cc(O)cc(O)c2C(=O)C1c1ccc(O)cc1 (stereo not drawn) [Example 14, 4,6-dihydroxy-2-(4-hydroxyphenyl)-1H-inden-1,3(2H)-dione] |  |  | 220 to 222 °C |  | 1380 |  |
| COc1cc(O)cc2c1C(Br)=C(c1ccc(O)cc1)C2=O [Example 16, 3-bromo-6-hydroxy-2-(4-hydroxyphenyl)-4-methoxy-1H-inden-1-one] | 200 |  | 210 °C (dec.) |  | 150 |  |
| O=C1C(c2ccc(O)cc2)=C(c2ccccc2)c2c(O)cc(O)cc21 [Example 20, 4,6-Dihydroxy-2-(4-hydroxyphenyl)-3-phenyl-1H-inden-1-one] | 47 |  | 223 to 225 °C |  | 44 |  |

Second part, led by results:

| IC50 (human ERα; [2]) [nM] | IC50 (human ERβ) [nM] | melting point | IC50 (human ERα) [nM] | SMILES | IC50 (human ERβ; [3]) [nM] | Fold upregulation of metallothionein-II mRNA [1] |
| --- | --- | --- | --- | --- | --- | --- |
| 5 | 2 | 245 °C (dec.) |  | O=C1C(c2ccc(O)cc2)=C(Br)c2cc(O)ccc21 [Example 4, 3-Bromo-5-hydroxy-2-(4-hydroxyphenyl)-1H-inden-1-one] |  | 10.4 |
| > 5000 |  | 250 °C (dec.) |  | CCNC1=C(c2ccc(O)cc2)C(=O)c2cc(O)ccc21 [Example 5, 3-(Ethylamino)-6-hydroxy-2-(4-hydroxyphenyl)-1H-inden-1-one] | 2700 |  |
| 400 |  | 118 to 120 °C |  | CCSC1=C(c2ccc(O)cc2)C(=O)c2ccc(O)cc21 [Example 7, 3-(Ethylthio)-5-hydroxy-2-(4-hydroxyphenyl)-1H-inden-1-one] | 150 |  |
| 12 |  | 90 to 92 °C |  | CSC1=C(c2ccc(O)cc2)C(=O)c2cc(O)ccc21 [Example 8, 6-hydroxy-2-(4-hydroxyphenyl)-3-(methylthio)-1H-inden-1-one] | 3 |  |
| 3 | 1 | 183 to 185 °C |  | CSC1=C(c2ccc(O)cc2)C(=O)c2ccc(O)cc21 [Example 9, 5-hydroxy-2-(4-hydroxyphenyl)-3-(methylthio)-1H-inden-1-one] |  |  |
| 714 |  | 350 °C (dec.) |  | O=C1C(c2ccc(O)cc2)=C(Br)c2c(O)cc(O)cc21 [Example 15, 3-bromo-4,6-dihydroxy-2-(4-hydroxyphenyl)-1H-inden-1-one] | 267 | 5.6 |
| 31 | 2 | 215 to 217 °C |  | CC1=C(c2ccc(O)cc2)C(=O)c2c(O)cc(O)cc21 [Example 17, 5,7-Dihydroxy-2-(4-hydroxyphenyl)-3-methyl-1H-inden-1-one] |  |  |
|  |  | 208 to 210 °C |  | CSC1=C(c2ccc(O)cc2)C(=O)c2cc(O)cc(O)c21 [Example 18, 4,6-Dihydroxy-2-(4-hydroxyphenyl)-3-(methylthio)-1H-inden-1-one] |  |  |
| 3 | 2 | 187 to 190 °C |  | CCSC1=C(c2ccc(O)cc2)C(=O)c2cc(O)cc(O)c21 [Example 19, 3-(Ethylthio)-4,6-Dihydroxy-2-(4-hydroxyphenyl)-1H-inden-1-one] |  |  |
|  |  | 128 to 130 °C | 3 | O=C1C(c2ccc(O)cc2)=C(c2ccccc2)c2cc(O)cc(O)c21 [Example 21, 5,7-Dihydroxy-2-(4-hydroxyphenyl)-3-phenyl-1H-inden-1-one] |  |  |
| 76 |  | 226 to 229 °C |  | CC1=C(c2ccc(O)cc2)C(=O)c2cc(O)c(O)cc21 [Example 22, 5,6-Dihydroxy-2-(4-hydroxyphenyl)-3-methyl-1H-inden-1-one] | 131 |  |
